One series has as its system HTLVIIIB strain of HIV-1. The series is described as follows: p24 antigen production in HIV-1 (HTLVIIIB) infected PBMCs. Particulars: Human immunodeficiency virus 1, PBMC.
Series [1] relates to human sperm acrosomal membrane. The series is described as follows: Sperm acrosomal membrane integrity, confocal laser scanning microscopy (FITC-Pisum sativum lectin). It counts as cell-based. The following applies: for acrosome status in confocal images: 500 μM, 6 hours. The procedure:
The percentages of sperm with an intact acrosome following a 6 hour treatment with and without increasing concentrations (31.2 μM to 500 μM) o f th e three NNIs (S-DABO, F-PBT and D-PBT in comparison to N-9 were evaluated by CLSM. Ethanol permeabilized and airdried sperm smears were stained sequentially with the three fluorescent markers, FITC-Pisum sativum lectin, TOTO-3 iodide, and Nile red (Molecular Probes, Eugene, Oreg.) because their targets are different (acrosome, nucleus, and membrane lipid respectively). Samples were examined under a BioRad MRC-1024 Laser Scanning Confocal Microscope (BioRad Laboratories, Hercules, Calif.) equipped with a krypton/argon mixed gas laser (excitation lines 488, 568, and 647 nm) and mounted on a Nikon Eclipse E800 series upright microscope. The fluorescence emission of fluorescein, TOTO-3 iodide, and Nile red from the acrosomal region, nucleus, and the plasma membrane of sperm after ethanol permteabilization were si multan eously detected using the […], and 680 DF32 emission/filter, respectively. Confocal images were obtained using a Nikon 100×(NA 1.35) objective lens and Kalman collection filter. Digitized images were saved on a Jaz disk (Iomega Corporation, Roy, UT) and process ed using Lasersharp Bio-Rad) with the Adobe Photoshop software (Adobe Systems, Mountain View, Calif.). Final images were printed on a Fuji Pictrography 3000 (Fuji Photo Film Co., Tokyo, Japan) color printer.

Series [2] relates to normal human ectocervical epithelial cells (CrEC 4627). The experiment in a line: MTT cell proliferation assay, ectocervical epithelial cells. It counts as cell-based. The following applies: for IC50: Homo sapiens, Epithelial cell, read-out: IC50 ectocervical epithelial cells; for SI (Selectivity Index) ectocervical epithelial cells: ratio of IC50 to EC50 (sperm). The protocol:
(§1) Normal human ectocervical (CrEC 4627) and endocervical epithelial cells (CrEC-En 4312) were obtained from Clonetics, (San Diego, Calif.) and propagated in T-150 cm^2 tissue culture flasks (Corning Corp., Corning, N.Y.) in small airway epithelial cell basal medium (Clonetics) supplemented with 50 μg/ml BPE, 0.5 μg/ml hydrocortisone, 0.5 μg/ml hEGF, 0.1 μg/ml retinoic acid, […] trasferrin, 5 μg/ml insulin, 5 μg/ml epinephrine, and 0.5 mg/ml BSA-FAF.
(§2) Briefly, cells were harvested with 0.125% (w/v) trypsin-0.02% EDTA (GIBCO) from exponential-phase maintenance cultures and centrifuged (300 g×5 minutes). After suspension and counting, cells were dispensed within triplicate 96-well tissue culture plates in 100 μl volumes. […] NNIs were reconstituted in DMSO to a concentration of 100 mM. […] Control wells with medium containing 0.25% of DMSO alone were included as controls. Culture plates were then incubated for 24 hour before adding 10 μl of MTT solution (5 mg/ml in PBS) to each well. Wells containing only medium and MTT were used as control for each plate. The tetrazolium/formazan reaction was allowed to proceed for 4 hours at 37° C., and then 100 μl of the solubilization buffer (10% sodium dodecyl sulfate in 0.1% HCl) was added to all wells and mixed thoroughly to dissolve the dark blue formazan crystals.
(§3) After an overnight incubation at 37° C., the optical densities (OD) at 540 nm were measured using a 96-well multiscanner autoreader with the solubilization buffer serving as blank, To translate the OD540 values into the number of live cells in each well, the OD540 values were compared to those on standard OD540-versus-cell number curves generated for each cell line. The percent survival was calculated using the formula: % survival=Live cell number [test]/Live cell number [control]×100. All assays were run in triplicate and the results were expressed as IC50 values. The IC50 was defined as the concentration required for 50% reduction in cell survival.

Series [3] concerns human sperm. The experiment in a line: Sperm immobilizing activity, concentration-dependent, CASA. Format: cell-based. The following applies: for EC50: Homo sapiens, Sperm, read-out: Spermicidal activity EC50 (sperm motility); for effect on sperm motility: concentrations as high as 500 μM. The procedure:
All donor sperm specimens were obtained after informed consent and in compliance with the guidelines of the Hughes Institute Institutional Review Board. Motile sperm (≧10×10^6/ml), were suspended in 1 ml of Biggers, whitten, and Whittingam's medium (BWW) containing 25 mM HEPES (Irvine Scientific, Santa Ana, Calif.), and 0.3% BSA in the presence and absence of serial two-fold dilutions of test substance (500 μM to 31.2 μM) in 1% DMSO. The stock solutions of NNIs were prepared in DMSO (100 mM) and diluted in assay medium to yield the desired concentrations. Corresponding volume of DMSO (1%) was added to control tubes. N-9 was diluted in BWW-0.3% BSA (pH 7.4) to yield the desired concentrations (31.2 μM to 500 μM). After 3 hours of incubation at 37° C., the percentage of motile sperm was evaluated by CASA by procedures as described in D'Cruz et al., BIOL REPROD, 58:1515-1526, (1998); and D'Cruz et al., MOL HUM REPROD, 4:683-693 (1998). The percent motilities were compared with sham-treated control suspensions of motile sperm. The spermicidal activity of test compounds was expressed as the EC50 (the final concentration of the compound in medium that decreases the proportion of motile sperm by 50%).
(§4) For CASA, 4 μl of each sperm suspension were loaded into two 20-μm Microcell chambers in a counting chamber at 37° C. At least 5-8 fields per chamber were scanned for analysis using a Hamilton Thome Integrated Visual Optical System (IVOS), version 10 instrument (Hamilton Thorne Research Inc., Danvers, Mass.). Each field was recorded for 30 seconds. The computer calibrations were set at 30 frames at a frame rate of 30/second. Other settings were as follows: minimum contrast 8; minimum size 6; low-size gate, 1.0; high-size gate, 2.9; low-intensity gate, 0.6; high-intensity gate, 1.4; phase-contrast illumination; low path velocity at 10 μm/s, and threshold straightness at 80%; and magnification factor, 1.95.
(§5) The sperm kinematics parameters that were determined included numbers of motile (MOT) and progressively (PRG) motile sperm; curvilinear velocity (VCL; a measure of the total distance traveled by a given sperm during the acquisition divided by the time elapsed); average path velocity (VAP; the spatially averaged path that eliminates the wobble of the sperm head), straight line velocity (VSL; the straight-line distance from beginning to end of track divided by time taken), beat cross frequency (BCF; frequency of sperm head crossing sperm average path), the amplitude of lateral head displacement (ALH; the mean width of sperm head oscillation), and the derivatives, straightness (STR=VSL/VAP×100) and linearity (LIN=VSL/VCL×100; departure of sperm track from a straight line). Data from each individual cell track were recorded and analyzed. At least 200 motile sperm were a nalyzed for each aliquot sampled.

For series [4], the system named is normal human endocervical epithelial cells (CrEC-En 4312). The experiment in a line: MTT cell proliferation assay, endocervical epithelial cells. It counts as cell-based. The following applies: for IC50: Homo sapiens, Epithelial cell, read-out: IC50 endocervical epithelial cells; for SI (Selectivity Index) endocervical epithelial cells: ratio of IC50 to EC50 (sperm). The protocol:
as §1, §2, §3

Series [5] has as its target purified recombinant HIV RT (Human immunodeficiency virus type 1 group M subtype B, UniProt P04585). The experiment in a line: RT inhibitory activity against purified recombinant HIV RT (cell-free Quan-T-RT scintillation proximity assay).
Procedure: In the assay, a DNA/RNA primer/template is bound to SPA beads via a biotin/streptavidin linkage. The primer DNA is a 16-mer oligo(T) which has been annealed to a poly(rA) template. The primer/template is bound to a streptavidin-coated SPA bead. ^3H-TTP is incorporated into the primer by reverse transcription. In brief, ^3H-TTP, at a final concentration of 0.5 Ci/sample was diluted in RT assay buffer (49.5 mM Tris-HCl, pH 8.0, 80 mM KCl, 10 mM MgCl2, 10 mM DTT, 2.5 mM EGTA, 0.05% Nonidet-P-40), and added to annealed DNA/RNA bound to SPA beads. The compound being tested was added to the reaction mixture at 0.001 μM-100 μM concentrations. […] The reaction was stopped by addition of 0.2 ml of 120 mM EDTA. The samples were counted in an open window using a Beckman LS 7600 instrument (Beckman Instruments, Fullerton, Calif.).
In series [6] the test system is human sperm. The experiment in a line: Time-dependent sperm immobilization and sperm kinematic parameters, CASA. Format: cell-based. The following applies: 1 mM. The procedure:
To test the effect of duration of incubation on SIA of spermicidal NNIs, motile fractions of sperm (10^7/ml) were incubated at 37° C. in BWW-0.3% BSA in the presence of 1 mM F-PBT, S-DABO in 1% DMSO or 1% DMSO alone as vehicle control. At timed intervals of 5 or 10 minutes, duplicate aliquots (4-μl) were transferred to two 20 μm Microcell chambers (Conception Technologies) and sperm motility was assessed by CASA for a duration of 60 minutes.
as §4, §5

[7] abbreviates: 168 h, read-out: IC50 p24 (HTLVIIIB).
[8] abbreviates: in Homo sapiens, read-out: IC50[p24], HIV replication in PBMCs.
Setting [9] is: 3 hours incubation at 37° C., CASA.

Entries after “also recorded” stand apart in the source; their conditions may differ. Like-named read-outs stand apart in the source and are kept apart here.

Procedure for HTLVIIIB strain of HIV-1: The HTLVIIIB strain of HIV-1 was propagated in CCRF-CEM cells and the virus stocks obtained from cell-free supernatants of infected cells were titered using MT-2 cells. Cell-free supernatants were harvested and frozen in 1 ml aliquots at −70° C. Titration of the stock virus was performed using MT-2 cells and the cytopathic effect of the virus used in this study was typical of HIV-1 on MT-2 cells.
Cells were cultured for 7 days in 96-well microtiter plates (100 μl/well; 2×10^6 cells/ml, triplicate wells) in the presence and absence of various concentrations (0.001 μM to 100 μM) of the anti-HIV agents. Cells from non-infected controls were handled in the same way except the virus was omitted from the preparation. Aliquots of culture supernatants were removed from the wells on the 7th day after infection for RT assays and p24 antigen, as previously described in the following references: Erice et al., ANTIMICROB AG CHEMOTHER, 37:835-838 (1993); Uckun et al., ANTIMICROB AGENTS CHEMOTHER, 42:383-388 (1998); and Zarling et al., Nature 347:92-95 (1990).
The p24 enzyme immunoassay was the unmodified kinetic assay available commercially (Coulter Corporation/Immunotech, Inc., Westbrook, Me.). The assay uses a murine monoclonal antibody to the HIV core protein coated onto microwell strips to which the antigen present in the test culture supernatant sample binds. […] The plates were read on a ELISA reader (Molecular Devices, Sunnyvale, Calif.) at 650 nm and p24 levels, expressed as ng/ml, were calculated against known standards supplied by Coulter/Immunotech, Inc. Percent viral inhibition was calculated by comparing the p24 values for the test substance-treated infected cells with the p24 values for untreated infected cells (i.e., virus controls).
Percent inhibition of virus replication was calculated by comparing the p24 antigen values or RT activity from the test drug-treated infected cells with p24 antigen values or RT activity from untreated infected cells. The anti-HIV activity of compounds was expressed as the IC50 values, calculated from the dose-response curves, and defined as the drug concentration that decreases the HIV-1 RT activity or p24 antigen production in HIV-1 infected PBMCs, by 50%.

Consider `CCCCCCCCCc1ccc(OCCOCCOCCOCCOCCOCCOCCOCCOCCO)cc1` [Compound N-9, nonoxynol-9, reference compound], for which the IC50 in the series with HTLVIIIB strain of HIV-1 (setting [7]) came out at 2.2 µM; in series [2] (24 h), 15 µM; in series [4] (24 h) it was 11 µM. Moreover, the “acrosome status in confocal images” value in series [1] is “no green fluorescence; also recorded: only acrosome-reacted sperm”. Also, in series [1] (after 6 hours of incubation), the “acrosomal staining (FIG. 5A)” value is “complete loss of acrosomal staining”. Also, the “SI (Selectivity Index) ectocervical epithelial cells” value in series [2] worked out at 0.18. The EC50 with human sperm [3] (3 h) came out at 81 µM. Further, the “SI (Selectivity Index) endocervical epithelial cells” value in series [4] is on record as 0.13.

As to `COc1ccc(OC)c(CCNC(=S)Nc2ccc(Br)cn2)c1` [D-PBT, N-[2-(2,5-dimethoxyphenethyl)]-N′-[2-(5-bromopyridyl)]-thiourea], the values for the IC50 (with HTLVIIIB strain of HIV-1 (setting [7]); in the series on HTLVIIIB strain of HIV-1 (setting [8]); in series [5]) were < 0.001 µM, < 0.001 µM and 0.1 µM, respectively. Moreover, in the series with human sperm [3] (CASA), the “effect on sperm motion parameters (PRG, VCL, VAP, VSL, STR, LIN, BCF, ALH)” value was “did not alter the sperm motion parameters”. Moreover, the EC50 in the series with human sperm [3] (setting [9]) is > 500 µM. The “effect on sperm motility” value in the series with human sperm [3] is recorded as “did not affect sperm motility”.

Take `Fc1ccccc1CCNC(=S)Nc1ccc(Br)cn1` [F-PBT, N-[2-(2-fluorophenethyl)]-N′-[2-(5-bromopyridyl)]-thiourea]: in the series on human sperm [6] (37° C.), the “time required for 50% motility loss of progressively motile sperm” value was 10 min. Also, the “beat cross frequency (BCF) and amplitude of lateral head displacement (ALH)” value with human sperm [6] (time-dependent, 60 minutes) is given as “relatively stable”. For the same compound, in the series on human sperm [6] (time-dependent, 60 minutes), the “linearity (LIN) and straightness (STR)” value is “remained relatively constant”. For the same compound, the “movement characteristics of surviving sperm (VCL, VAP, VSL)” value in the series on human sperm [6] (time-dependent, 60 minutes) was “significant changes”. The IC50 in the series with HTLVIIIB strain of HIV-1 (setting [7]) is < 0.001 µM; in the series with HTLVIIIB strain of HIV-1 (setting [8]), < 0.001 µM; in series [2] (24 h), > 1000 µM; in series [2] it was > 1000 µM; in series [4] (24 h), > 1000 µM; in series [4] it was > 1000 µM. Besides, in series [5], the IC50 is 0.4 µM. Besides, the “acrosome status in confocal images” value in series [1] is “acrosomes remained intact; also recorded: None of the FIGS. 5B, 5C, or 5D show increased acrosome reaction”. Further, the “SI (Selectivity Index) ectocervical epithelial cells” value in series [2] is >6.8. For the same compound, the “spermicidal activity (in words)” value in the series with human sperm [3] was “concentration- and time-dependent spermicidal activity”. Further, the EC50 in the series on human sperm [3] (3 h) came out at 147 µM. Further, the “SI (Selectivity Index) endocervical epithelial cells” value in series [4] was >6.8.

On to `CSCSc1nc(Cc2ccccc2)c(C(C)C)c(=O)[nH]1` [S-DABO, 5-isopropyl-2-[(methylthiomethyl)thio]-6-(benzyl)-pyrimidin-4-(1H)-one], for which the IC50 was < 0.001 µM in the series on HTLVIIIB strain of HIV-1 (setting [7]); < 0.001 µM with HTLVIIIB strain of HIV-1 (setting [8]); > 4000 µM in series [2] (24 hours treatment, MTT); > 4000 µM in series [2] (MTT dose survival curves); > 4000 µM in series [4] (24 hours treatment, MTT); > 4000 µM in series [4] (MTT dose survival curves). For the same compound, the IC50 in series [5] came to 6.1 µM. In series [1], the “acrosome status in confocal images” value is “acrosomes remained intact; also recorded: None of the FIGS. 5B, 5C, or 5D show increased acrosome reaction”. In addition, the “SI (Selectivity Index) ectocervical epithelial cells” value in series [2] is reported as >19.8. In addition, in the series on human sperm [3], the “spermicidal activity (in words)” value is “concentration- and time-dependent spermicidal activity”. Moreover, in the series with human sperm [3] (setting [9]), the EC50 was found to be 202 µM. The “SI (Selectivity Index) endocervical epithelial cells” value in series [4] is >19.8.

For `S=C(NCCc1ccccn1)Nc1ccc(Br)cn1` [Trovirdine, reference compound], in the series with HTLVIIIB strain of HIV-1 (setting [7]), the IC50 stood at 0.007 µM. Besides, the “effect on sperm motion parameters (PRG, VCL, VAP, VSL, STR, LIN, BCF, ALH)” value in the series on human sperm [3] (CASA) is given as “did not alter the sperm motion parameters”. In the series on human sperm [3] (3 h), the EC50 is > 500 µM. For the same compound, the “effect on sperm motility” value in the series on human sperm [3] was “did not affect sperm motility”.

(Values after patent US6376504B1 (Parker Hughes Institute, priority 1998, dated 2002).)
